Assay results: ChEMBL document CHEMBL3044713, “Synthesis, characterization, and pharmacological evaluation of new GABA analogs as potent anticonvulsant agents” (Med Chem Res, 2012)
Active and inactive are the calls of the source. No cut-off for these calls is given here.

What was measured:
Mus musculus [1] = assay: Anticonvulsant activity in Mus musculus albino (mouse) assessed as protection against maximal electroshock-induced seizures at 300 mg/kg, ip after 0.5 hr; type: functional, organism-based; parameters: dose 300 mg/kg
Mus musculus [2] = assay: Anticonvulsant activity in Mus musculus albino (mouse) assessed as protection against subcutaneous pentylenetetrazole-induced seizures at 300 mg/kg, ip after 4 hr; type: functional, organism-based; parameters: dose 300 mg/kg
Mus musculus [3] = assay: Anticonvulsant activity in Mus musculus albino (mouse) assessed as protection against subcutaneous strychnine-induced seizures at 300 mg/kg, ip after 0.5 hr; type: functional, organism-based; parameters: dose 300 mg/kg
[4] = Neurotoxicity in ip dosed Mus musculus albino (mouse) assessed as motor impairment after 0.5 hr by rotorod test; type: toxicity, organism-based; conditions: in vivo
Mus musculus [5] = assay: Anticonvulsant activity in Mus musculus albino (mouse) assessed as protection against subcutaneous strychnine-induced seizures at 300 mg/kg, ip after 4 hr; type: functional, organism-based; parameters: dose 300 mg/kg
Mus musculus [6] = assay: Anticonvulsant activity in Mus musculus albino (mouse) assessed as protection against ip picrotoxin-induced seizures at 300 mg/kg, ip after 4 hr; type: functional, organism-based; parameters: dose 300 mg/kg
Mus musculus [7] = assay: Anticonvulsant activity in Mus musculus albino (mouse) assessed as protection against subcutaneous pentylenetetrazole-induced seizures at 300 mg/kg, ip after 0.5 hr; type: functional, organism-based; parameters: dose 300 mg/kg
Mus musculus [8] = assay: Anticonvulsant activity in Mus musculus albino (mouse) assessed as protection against ip picrotoxin-induced seizures at 300 mg/kg, ip after 0.5 hr; type: functional, organism-based; parameters: dose 300 mg/kg
[9] = Neurotoxicity in ip dosed Mus musculus albino (mouse) assessed as motor impairment after 4 hr by rotorod test; type: toxicity, organism-based; conditions: in vivo
Mus musculus [10] = assay: Anticonvulsant activity in ip dosed Mus musculus albino (mouse) assessed as protection against maximal electroshock-induced seizures after 0.5 hr; type: functional; conditions: read-out: MED
Mus musculus [11] = assay: Neurotoxicity in Mus musculus albino (mouse) assessed as motor impairment at 300 mg/kg, ip after 0.5 hr by rotorod test; type: toxicity, organism-based; parameters: dose 300 mg/kg, route intraperitoneal; conditions: in vivo
Mus musculus [12] = assay: Anticonvulsant activity in ip dosed Mus musculus albino (mouse) assessed as protection against ip picrotoxin-induced seizures after 4 hr; type: functional; conditions: read-out: MED
Mus musculus [13] = assay: Anticonvulsant activity in ip dosed Mus musculus albino (mouse) assessed as protection against subcutaneous pentylenetetrazole-induced seizures after 4 hr; type: functional; conditions: read-out: MED
Mus musculus [14] = assay: Neurotoxicity in Mus musculus albino (mouse) assessed as motor impairment at 300 mg/kg, ip after 4 hr by rotorod test; type: toxicity, organism-based; parameters: dose 300 mg/kg, route intraperitoneal; conditions: in vivo
Mus musculus [15] = assay: Anticonvulsant activity in ip dosed Mus musculus albino (mouse) assessed as protection against ip picrotoxin-induced seizures after 0.5 hr; type: functional; conditions: read-out: MED
Mus musculus [16] = assay: Anticonvulsant activity in ip dosed Mus musculus albino (mouse) assessed as protection against subcutaneous strychnine-induced seizures after 4 hr; type: functional; conditions: read-out: MED
Mus musculus [17] = assay: Anticonvulsant activity in ip dosed Mus musculus albino (mouse) assessed as protection against subcutaneous pentylenetetrazole-induced seizures after 0.5 hr; type: functional; conditions: read-out: MED
Mus musculus [18] = assay: Anticonvulsant activity in ip dosed Mus musculus albino (mouse) assessed as protection against subcutaneous strychnine-induced seizures after 0.5 hr; type: functional; conditions: read-out: MED

Row | Compound | Activity (Mus musculus [1]) | Activity (Mus musculus [2]) | Activity (Mus musculus [3]) | MTD at 0.5 h [4] [mg/kg] | Activity (Mus musculus [5]) | Activity (Mus musculus [6]) | Activity (Mus musculus [7]) | Activity (Mus musculus [8]) | MTD at 4 h [9] [mg/kg] | minimal effective dose (Mus musculus [10]) [mg/kg] | Activity (Mus musculus [11]) | minimal effective dose (Mus musculus [12]) [mg/kg] | minimal effective dose (Mus musculus [13]) [mg/kg] | Activity (Mus musculus [14]) | minimal effective dose (Mus musculus [15]) [mg/kg] | minimal effective dose (Mus musculus [16]) [mg/kg] | minimal effective dose (Mus musculus [17]) [mg/kg] | minimal effective dose (Mus musculus [18]) [mg/kg]
1 | O=C(CCCN1C(=O)c2ccccc2C1=O)Nc1ccc([N+](=O)[O-])cc1 | inactive | inactive | inactive | 100 | inactive | inactive | inactive | inactive | 100 |  |  |  |  |  |  |  |  | 
2 | O=C(CCCN1C(=O)c2ccccc2C1=O)Nc1ccccc1 |  | inactive | inactive |  | inactive | inactive | inactive | inactive | 100 | 300 | Non-toxic |  |  |  |  |  |  | 
3 | O=C1NC(=O)C(c2ccccc2)(c2ccccc2)N1 | inactive | inactive | inactive |  | inactive | inactive | inactive | inactive |  |  |  |  |  |  |  |  |  | 
4 | CCc1ccc(NC(=O)CCCN2C(=O)c3ccccc3C2=O)cc1 | inactive |  | inactive |  |  |  |  |  |  |  | Non-toxic | 100 | 300 | Non-toxic | 100 | 100 | 100 | 
5 | O=C(CCCN1C(=O)c2ccccc2C1=O)Nc1ccc(Cl)cc1Cl | inactive | inactive | inactive |  | inactive | inactive | inactive |  |  |  | Non-toxic |  |  | Non-toxic | 300 |  |  | 300
6 | O=C(CCCN1C(=O)c2ccccc2C1=O)Nc1ccc(Cl)cc1 | inactive | inactive |  |  |  | inactive | inactive |  |  |  | Non-toxic |  |  | Non-toxic | 300 | 300 |  | 100
7 | O=C(CCCN1C(=O)c2ccccc2C1=O)Nc1ccc(F)cc1 | inactive | inactive |  |  | inactive | inactive | inactive |  |  |  | Non-toxic |  |  | Non-toxic | 300 |  |  | 300
8 | O=C(CCCN1C(=O)c2ccccc2C1=O)Nc1ccc(Br)cc1 | inactive | inactive | inactive | 100 | inactive |  |  |  |  |  |  | 300 |  | Non-toxic | 100 |  | 30 | 
9 | COc1ccc(NC(=O)CCCN2C(=O)c3ccccc3C2=O)cc1 | inactive | inactive | inactive |  | inactive | inactive | inactive |  |  |  | Non-toxic |  |  | Non-toxic | 300 |  |  | 
10 | O=C(CCCN1C(=O)c2ccccc2C1=O)Nc1ccc(F)cc1F | inactive | inactive |  |  | inactive | inactive | inactive |  |  |  | Non-toxic |  |  | Non-toxic | 300 |  |  | 100
11 | O=C(CCCN1C(=O)c2ccccc2C1=O)Nc1ccc(I)cc1 | inactive | inactive |  |  | inactive | inactive | inactive | inactive |  |  | Non-toxic |  |  | Non-toxic |  |  |  | 100
12 | CCC1(C)CC(=O)NC1=O (centres undefined) [ETHOSUXIMIDE] |  | inactive | inactive |  | inactive | inactive | inactive | inactive |  | 300 | Non-toxic |  |  | Non-toxic |  |  |  | 
13 | Cc1ccc(NC(=O)CCCN2C(=O)c3ccccc3C2=O)cc1 | inactive |  | inactive |  | inactive | inactive | inactive |  |  |  | Non-toxic |  | 100 | Non-toxic | 300 |  |  | 
14 | O=C(CCCN1C(=O)c2ccccc2C1=O)Nc1ccc(Cl)cc1I | inactive | inactive |  | 300 | inactive | inactive | inactive |  |  |  |  |  |  | Non-toxic | 300 |  |  | 100
15 | Cc1cc(Cl)ccc1NC(=O)CCCN1C(=O)c2ccccc2C1=O | inactive |  |  |  | inactive |  |  |  |  |  | Non-toxic | 300 | 300 | Non-toxic | 100 |  | 100 | 300
